According to US20090155387A1, “STABLE PHARMACEUTICAL COMPOSITION COMPRISING BETA-LACTAM ANTIBIOTIC AND ION-CHELATING AGENT” (priority 2006, published 2009):
One block for each molecule: values may come before it.

Test: Amounts of β-lactam antibiotic, β-lactamase inhibitor and aminoglycoside antibiotic in solution over time (reverse-phase LC/HPLC)
Format: physicochemical
Experimental: The amounts of β-lactam antibiotics and β-lactamase inhibitor were determined using C18 reverse-phase LC and UV-VIS detector (Tianjin […] Co., Ltd., analysis method No. HM-K-03). The content of aminoglycoside antibiotics was measured using reverse-phase HPLC and evaporation-light-scattering detector (ELSD detector) (Tianjin […] Co., Ltd., analysis method No. HM-K-08). The amount of antibiotic component at each time point was expressed as a percentage with respect to the amount at the initial time. The relative amount of each antibiotic component in the composition at each time point was expressed as peak area ratio with respect to the corresponding peak area of an external standard.

amount (percentage of initial amount) (in Example 22 solution (2.5% fructose), pH 6.0, room temperature, 0 h): 92.40% | amount (percentage of initial amount) (in Example 22 solution (2.5% fructose), pH 6.0, room temperature, 1 h): 98.91% | amount (percentage of initial amount) (in Example 22 solution (2.5% fructose), pH 6.0, room temperature, 2 h): 104.0% | amount (percentage of initial amount) (in Example 22 solution (2.5% fructose), pH 6.0, room temperature, 4 h): 98.91% | amount (percentage of initial amount) (in Example 22 solution (2.5% fructose), pH 6.0, room temperature, 6 h): 99.03% | amount (percentage of initial amount) (in Example 22 solution (2.5% fructose), pH 6.0, room temperature, 8 h): 85.02%
Compound: CC1(C)S[C@@H]2[C@H](NC(=O)[C@H](NC(=O)N3CCNC3=O)c3ccccc3)C(=O)N2[C@H]1C(=O)O [Azlocillin sodium]

amount (percentage of initial amount) (in Example 11 solution (pH 6.0) from freeze-dried powder stored 7 days at 0° C., redissolved, 0 h): 97.11% | amount (percentage of initial amount) (in Example 11 solution (pH 6.0) from freeze-dried powder stored 7 days at 0° C., redissolved, 1 h): 90.83% | amount (percentage of initial amount) (in Example 11 solution (pH 6.0) from freeze-dried powder stored 7 days at 0° C., redissolved, 2 h): 98.18% | amount (percentage of initial amount) (in Example 11 solution (pH 6.0) from freeze-dried powder stored 7 days at 0° C., redissolved, 4 h): 93.69% | amount (percentage of initial amount) (in Example 11 solution (pH 6.0) from freeze-dried powder stored 7 days at 0° C., redissolved, 6 h): 91.23% | amount (percentage of initial amount) (in Example 11 solution (pH 6.0) from freeze-dried powder stored 7 days at 0° C., redissolved, 8 h): 94.39% | amount (percentage of initial amount) (in Example 17 solution, pH 6.5, room temperature, 0 h): 116.6% | amount (percentage of initial amount) (in Example 17 solution, pH 6.5, room temperature, 1 h): 94.83% | amount (percentage of initial amount) (in Example 17 solution, pH 6.5, room temperature, 2 h): 91.86% | amount (percentage of initial amount) (in Example 17 solution, pH 6.5, room temperature, 4 h): 91.96% | amount (percentage of initial amount) (in Example 17 solution, pH 6.5, room temperature, 6 h): 91.52% | amount (percentage of initial amount) (in Example 17 solution, pH 6.5, room temperature, 8 h): 98.56% | amount (percentage of initial amount) (in Example 18 solution (2.5% fructose), pH 6.5, room temperature, 0 h): 96.48% | amount (percentage of initial amount) (in Example 18 solution (2.5% fructose), pH 6.5, room temperature, 1 h): 95.90% | amount (percentage of initial amount) (in Example 18 solution (2.5% fructose), pH 6.5, room temperature, 2 h): 71.70% | amount (percentage of initial amount) (in Example 18 solution (2.5% fructose), pH 6.5, room temperature, 4 h): 91.78% | amount (percentage of initial amount) (in Example 18 solution (2.5% fructose), pH 6.5, room temperature, 6 h): 93.08% | amount (percentage of initial amount) (in Example 18 solution (2.5% fructose), pH 6.5, room temperature, 8 h): 97.69%
Compound: CC1(C)S[C@@H]2[C@H](NC(=O)[C@H](NC(=O)N3CCN(S(C)(=O)=O)C3=O)c3ccccc3)C(=O)N2[C@H]1C(=O)O [Mezlocillin sodium]

amount (percentage of initial amount) (in Example 4 solution (no EDTA), pH 6.75, room temperature, 0 h): 101.4% | amount (percentage of initial amount) (in Example 4 solution (no EDTA), pH 6.75, room temperature, 1 h): 98.66% | amount (percentage of initial amount) (in Example 4 solution (no EDTA), pH 6.75, room temperature, 2 h): 98.79% | amount (percentage of initial amount) (in Example 4 solution (no EDTA), pH 6.75, room temperature, 4 h): 101.5% | amount (percentage of initial amount) (in Example 4 solution (no EDTA), pH 6.75, room temperature, 6 h): 107.4% | amount (percentage of initial amount) (in Example 5 solution, pH 6.75, room temperature, 0 h): 101.4% | amount (percentage of initial amount) (in Example 5 solution, pH 6.75, room temperature, 1 h): 98.66% | amount (percentage of initial amount) (in Example 5 solution, pH 6.75, room temperature, 2 h): 98.79% | amount (percentage of initial amount) (in Example 5 solution, pH 6.75, room temperature, 4 h): 101.5% | amount (percentage of initial amount) (in Example 5 solution, pH 6.75, room temperature, 6 h): 107.4% | amount (percentage of initial amount) (in Example 6 solution, pH 6.5, room temperature, 0 h): 110.4% | amount (percentage of initial amount) (in Example 6 solution, pH 6.5, room temperature, 1 h): 99.48% | amount (percentage of initial amount) (in Example 6 solution, pH 6.5, room temperature, 2 h): 101.3% | amount (percentage of initial amount) (in Example 6 solution, pH 6.5, room temperature, 4 h): 98.66% | amount (percentage of initial amount) (in Example 6 solution, pH 6.5, room temperature, 6 h): 98.02% | amount (percentage of initial amount) (in Example 6 solution, pH 6.5, room temperature, 8 h): 99.30% | amount (percentage of initial amount) (in Example 12 solution (no aminoglycoside) from freeze-dried powder stored 7 days at 0° C., redissolved, 0 h): 100.2% | amount (percentage of initial amount) (in Example 12 solution (no aminoglycoside) from freeze-dried powder stored 7 days at 0° C., redissolved, 1 h): 99.0% | amount (percentage of initial amount) (in Example 12 solution (no aminoglycoside) from freeze-dried powder stored 7 days at 0° C., redissolved, 2 h): 99.0% | amount (percentage of initial amount) (in Example 12 solution (no aminoglycoside) from freeze-dried powder stored 7 days at 0° C., redissolved, 4 h): 96.2% | amount (percentage of initial amount) (in Example 12 solution (no aminoglycoside) from freeze-dried powder stored 7 days at 0° C., redissolved, 6 h): 94.5% | amount (percentage of initial amount) (in Example 12 solution (no aminoglycoside) from freeze-dried powder stored 7 days at 0° C., redissolved, 8 h): 95.3% | amount (percentage of initial amount) (in Example 13 solution (Example 12 solution + etimicin sulfate), 0 h): 100.2% | amount (percentage of initial amount) (in Example 13 solution (Example 12 solution + etimicin sulfate), 1 h): 99.0% | amount (percentage of initial amount) (in Example 13 solution (Example 12 solution + etimicin sulfate), 2 h): 99.0% | amount (percentage of initial amount) (in Example 13 solution (Example 12 solution + etimicin sulfate), 4 h): 96.2% | amount (percentage of initial amount) (in Example 13 solution (Example 12 solution + etimicin sulfate), 6 h): 94.5% | amount (percentage of initial amount) (in Example 13 solution (Example 12 solution + etimicin sulfate), 8 h): 95.3% | amount (percentage of initial amount) (in Example 14 solution, pH 6.5, room temperature, 0 h): 98.42% | amount (percentage of initial amount) (in Example 14 solution, pH 6.5, room temperature, 1 h): 97.39% | amount (percentage of initial amount) (in Example 14 solution, pH 6.5, room temperature, 2 h): 97.46% | amount (percentage of initial amount) (in Example 14 solution, pH 6.5, room temperature, 4 h): 94.70% | amount (percentage of initial amount) (in Example 14 solution, pH 6.5, room temperature, 6 h): 93.02% | amount (percentage of initial amount) (in Example 15 solution, pH 6.5, room temperature, 0 h): 101.7% | amount (percentage of initial amount) (in Example 15 solution, pH 6.5, room temperature, 1 h): 96.06% | amount (percentage of initial amount) (in Example 15 solution, pH 6.5, room temperature, 2 h): 95.72% | amount (percentage of initial amount) (in Example 15 solution, pH 6.5, room temperature, 4 h): 97.32% | amount (percentage of initial amount) (in Example 15 solution, pH 6.5, room temperature, 6 h): 69.95% | amount (percentage of initial amount) (in Example 16 solution, pH 6.5, room temperature, 0 h): 102.9% | amount (percentage of initial amount) (in Example 16 solution, pH 6.5, room temperature, 1 h): 108.6% | amount (percentage of initial amount) (in Example 16 solution, pH 6.5, room temperature, 2 h): 104.6% | amount (percentage of initial amount) (in Example 16 solution, pH 6.5, room temperature, 4 h): 99.50% | amount (percentage of initial amount) (in Example 16 solution, pH 6.5, room temperature, 6 h): 98.91% | amount (percentage of initial amount) (in Example 16 solution, pH 6.5, room temperature, 8 h): 103.4% | amount (percentage of initial amount) (in Example 19 solution, pH 6.75, room temperature, 0 h): 95.91% | amount (percentage of initial amount) (in Example 19 solution, pH 6.75, room temperature, 1 h): 97.01% | amount (percentage of initial amount) (in Example 19 solution, pH 6.75, room temperature, 2 h): 95.94% | amount (percentage of initial amount) (in Example 19 solution, pH 6.75, room temperature, 4 h): 95.86% | amount (percentage of initial amount) (in Example 19 solution, pH 6.75, room temperature, 6 h): 95.41% | amount (percentage of initial amount) (in Example 19 solution, pH 6.75, room temperature, 8 h): 95.22% | amount (percentage of initial amount) (in Example 20 solution (no EDTA), pH 6.75, room temperature, 0 h): 92.30% | amount (percentage of initial amount) (in Example 20 solution (no EDTA), pH 6.75, room temperature, 1 h): 94.80% | amount (percentage of initial amount) (in Example 20 solution (no EDTA), pH 6.75, room temperature, 2 h): 94.06% | amount (percentage of initial amount) (in Example 20 solution (no EDTA), pH 6.75, room temperature, 4 h): 94.12% | amount (percentage of initial amount) (in Example 20 solution (no EDTA), pH 6.75, room temperature, 6 h): 93.15% | amount (percentage of initial amount) (in Example 20 solution (no EDTA), pH 6.75, room temperature, 8 h): 94.50% | amount (percentage of initial amount) (in Example 21 solution, pH 6.75, room temperature (22° C.), 0 h): 92.44% | amount (percentage of initial amount) (in Example 21 solution, pH 6.75, room temperature (22° C.), 1 h): 104.6% | amount (percentage of initial amount) (in Example 21 solution, pH 6.75, room temperature (22° C.), 2 h): 102.4% | amount (percentage of initial amount) (in Example 21 solution, pH 6.75, room temperature (22° C.), 4 h): 97.95% | amount (percentage of initial amount) (in Example 21 solution, pH 6.75, room temperature (22° C.), 6 h): 98.90% | amount (percentage of initial amount) (in Example 21 solution, pH 6.75, room temperature (22° C.), 8 h): 102.9%
Compound: CCN1CCN(C(=O)N[C@@H](C(=O)N[C@@H]2C(=O)N3C(C(=O)O)=C(CSc4nnnn4C)CS[C@H]23)c2ccc(O)cc2)C(=O)C1=O [Cefoperazone sodium]
